Data from US20250090510A1, “eIF4G1-eIF1 INHIBITORS AND USE THEREOF” (YEDA RESEARCH AND DEVELOPMENT CO. LTD., priority 2022, published 2025).

Target: T1, eIF4G1 (Homo sapiens, UniProt Q04637)
T1 construct: The pET-28-His-bdSumo-eIF4G1 (675-1129) was generated using eIF4G1 (675-1129) as insert and pET-28-14His-bdSumo as backbone; bdSUMO (N); made in house; host or cells: E. coli BL21
Assay: Intrinsic fluorescence of His-eIF4G1
Type: binding
Conditions: 0-256 μM, 5 minutes, excitation 280 nm, emission 350 nm; read-out: IC50, loss of eIF4G1 intrinsic fluorescence
Description: FIGS. 1A-G: Identification and initial characterization of eIF1-eIF4G1 inhibitors using a high-throughput drug screen (HTS). (1A) A flowchart describing the steps of the recombinant eIF1-eIF4G1 split-RL HTS. (1B) Selection of drugs that inhibit leaky scanning. HEK293T cells were transfected with a short 5′UTR bearing GFP reporter gene described on the top, treated with the indicated HTS hits, and then analyzed by western blot with GFP antibody. US and DS denote upstream and downstream AUG initiation sites, respectively. (1C) A graph showing the change in the ratio of the upstream and downstream AUG following treatment with the indicated drugs. (1D) The chemical structure of the eIF1-eIF4G1 inhibitors, i14G1-10 and i14G1-12. (1E) His-tagged eIF4G1 and His-tagged eIF1 were expressed in BL21 bacteria and purified using nickel NTA beads. Purified His-tagged eIF4G1 and His-tagged eIF1 were incubated with the indicated doses of either i14G1-10 (0-256 μM) or i14G1-12 (0-256 μM) for 5 minutes, followed by fluorescence measurement. […] IC50 was calculated using Graphpad prism 9. […]
Intrinsic fluorescence of His-eIF1 and His-eIF4G1. […] After 5 minutes, fluorescence (280/350) was measured on Cytation 5 multi-mode reader (Biotek). The fluorescence intensity values corresponding to respective concentration in both i14G1-10 and i14G1-12 treatments were plotted and IC50 was calculated using GraphPad Prism 9.0. […]

T1 sequence (Q04637 675-1129): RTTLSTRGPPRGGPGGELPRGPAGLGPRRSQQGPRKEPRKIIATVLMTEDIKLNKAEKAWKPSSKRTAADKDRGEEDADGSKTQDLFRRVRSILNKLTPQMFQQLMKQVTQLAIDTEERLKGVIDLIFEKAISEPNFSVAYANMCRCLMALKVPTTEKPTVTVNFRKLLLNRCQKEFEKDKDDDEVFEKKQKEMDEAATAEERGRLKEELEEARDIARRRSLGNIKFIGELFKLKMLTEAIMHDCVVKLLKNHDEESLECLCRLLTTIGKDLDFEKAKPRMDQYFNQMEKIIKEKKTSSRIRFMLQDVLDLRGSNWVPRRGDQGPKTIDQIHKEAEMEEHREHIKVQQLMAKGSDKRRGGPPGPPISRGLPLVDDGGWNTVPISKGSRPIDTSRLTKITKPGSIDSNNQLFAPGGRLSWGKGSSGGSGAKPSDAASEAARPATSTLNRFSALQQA

IC50: 58.4 µM
Structure (SMILES): Cn1ccnc1S/C(=C/C=C(C#N)C#N)c1ccc(Cl)cc1 [i14G1-12]
